Laboratory results as given in patent publication US5792656A (priority 1995, dated 1998).
“And” between values parts separate entries of the source, which are not always exact repeats. Equal values may be shown once. “Also recorded” adds a separate entry of the source. Read-outs that look alike come from different tables or passages of the source.

Experiments:
[1] = system: hexokinase (low Km Hexokinases I, II, and III); settings: cited from earlier work
[2] = target: T1, GLUT-1 low Km glucose transporter of untransfected parental AtT-20ins cells (Mus musculus, UniProt P17809); test: Glucose transport (3-O-methyl glucose uptake) in untransfected parental AtT-20ins cells; format: cell-based; settings: untransfected parental AtT-20ins line
T1 sequence (P17809 1-492): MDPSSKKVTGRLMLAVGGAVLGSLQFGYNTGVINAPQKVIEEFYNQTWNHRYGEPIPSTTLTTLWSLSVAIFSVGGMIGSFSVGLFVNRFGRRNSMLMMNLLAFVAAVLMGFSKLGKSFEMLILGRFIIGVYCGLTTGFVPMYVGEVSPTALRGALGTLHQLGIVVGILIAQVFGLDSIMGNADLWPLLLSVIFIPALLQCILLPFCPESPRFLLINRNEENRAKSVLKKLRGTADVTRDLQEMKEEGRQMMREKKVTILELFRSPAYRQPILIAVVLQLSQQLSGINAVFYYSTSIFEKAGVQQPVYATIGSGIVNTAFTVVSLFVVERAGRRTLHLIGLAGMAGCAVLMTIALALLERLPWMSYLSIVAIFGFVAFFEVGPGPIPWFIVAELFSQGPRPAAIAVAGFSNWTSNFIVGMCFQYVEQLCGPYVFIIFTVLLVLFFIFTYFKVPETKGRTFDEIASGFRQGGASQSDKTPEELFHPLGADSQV

parental AtT-20ins cells = test: Insulin secretion, static 3 hour incubation, parental cells; format: cell-based; settings: 0-20 mM glucose, 3 hours static incubation
Procedure: (§1) Parental or GLUT-2 transfected lines CGT-5 and CGT-6 were removed from growth plates by light trypsinization and replanted in 6 well dishes (Costar) at a density of 5×10^5 cells per well. The cells were then grown for three days in culture media containing 1 mM (see above). […] Cells were incubated with secretagogues for 3 hours, after which media was collected for insulin radioimmunoassay.

[3] = target: T2, rat islet GLUT-2 glucose transporter expressed in AtT-20ins cells (lines CGT-5, CGT-6) (Rattus norvegicus, UniProt P12336)
T2 sequence (P12336 1-522): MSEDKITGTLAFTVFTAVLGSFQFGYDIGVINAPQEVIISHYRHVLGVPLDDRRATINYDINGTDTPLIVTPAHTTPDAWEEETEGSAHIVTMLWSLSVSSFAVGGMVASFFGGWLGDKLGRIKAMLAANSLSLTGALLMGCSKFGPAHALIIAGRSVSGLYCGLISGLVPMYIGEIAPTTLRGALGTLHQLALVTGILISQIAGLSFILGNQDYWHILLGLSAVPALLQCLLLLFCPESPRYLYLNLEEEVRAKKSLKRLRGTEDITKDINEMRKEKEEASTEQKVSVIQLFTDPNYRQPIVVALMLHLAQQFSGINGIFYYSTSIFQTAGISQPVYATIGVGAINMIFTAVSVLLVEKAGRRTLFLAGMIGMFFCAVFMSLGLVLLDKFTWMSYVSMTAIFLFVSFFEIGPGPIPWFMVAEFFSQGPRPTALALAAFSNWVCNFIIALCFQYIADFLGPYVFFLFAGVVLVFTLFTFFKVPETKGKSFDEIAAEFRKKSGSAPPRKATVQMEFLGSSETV

[4] = target: T3, high Km glucose transport activity (GLUT-2) of isolated, dispersed islets of Langerhans (Rattus norvegicus, UniProt P12336); settings: cited from earlier work
T3 construct: host or cells: isolated, dispersed islets of Langerhans (Johnson et al., 1990a)
T3 sequence (P12336 1-522): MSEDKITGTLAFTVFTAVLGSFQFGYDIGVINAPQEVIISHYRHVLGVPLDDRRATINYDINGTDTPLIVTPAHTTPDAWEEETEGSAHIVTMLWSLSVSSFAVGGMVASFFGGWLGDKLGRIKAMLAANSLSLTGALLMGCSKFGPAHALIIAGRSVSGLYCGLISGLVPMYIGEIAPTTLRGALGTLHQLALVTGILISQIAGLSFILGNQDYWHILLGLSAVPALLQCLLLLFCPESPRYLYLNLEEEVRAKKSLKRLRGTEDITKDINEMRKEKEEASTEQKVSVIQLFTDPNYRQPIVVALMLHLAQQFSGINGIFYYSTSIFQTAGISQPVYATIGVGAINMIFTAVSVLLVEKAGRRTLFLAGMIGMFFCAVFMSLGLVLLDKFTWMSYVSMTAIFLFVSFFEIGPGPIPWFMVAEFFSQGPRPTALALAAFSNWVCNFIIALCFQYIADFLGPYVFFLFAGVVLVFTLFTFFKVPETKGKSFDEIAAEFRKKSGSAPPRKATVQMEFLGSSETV

[5] = target: T4, glucokinase (Hexokinase IV) (Homo sapiens, UniProt P35557); settings: read-out: Km for glucose; cited from earlier work
T4 sequence (P35557 1-465): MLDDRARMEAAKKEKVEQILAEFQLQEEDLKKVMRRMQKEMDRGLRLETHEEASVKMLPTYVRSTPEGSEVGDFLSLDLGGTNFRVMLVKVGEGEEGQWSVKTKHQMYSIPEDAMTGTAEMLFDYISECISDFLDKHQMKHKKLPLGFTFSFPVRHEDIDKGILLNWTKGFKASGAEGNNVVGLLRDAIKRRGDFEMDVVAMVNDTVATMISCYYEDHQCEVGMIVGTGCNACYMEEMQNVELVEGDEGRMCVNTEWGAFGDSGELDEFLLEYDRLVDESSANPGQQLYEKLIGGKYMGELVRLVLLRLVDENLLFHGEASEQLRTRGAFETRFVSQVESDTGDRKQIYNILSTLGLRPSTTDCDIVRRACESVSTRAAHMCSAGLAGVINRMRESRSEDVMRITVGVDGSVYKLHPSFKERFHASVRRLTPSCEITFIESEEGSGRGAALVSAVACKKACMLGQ

[6] = target: T5, glucokinase, islet isoform (Rattus norvegicus, UniProt P17712); settings: read-out: Km for glucose; cited from earlier work
T5 sequence (P17712 1-465): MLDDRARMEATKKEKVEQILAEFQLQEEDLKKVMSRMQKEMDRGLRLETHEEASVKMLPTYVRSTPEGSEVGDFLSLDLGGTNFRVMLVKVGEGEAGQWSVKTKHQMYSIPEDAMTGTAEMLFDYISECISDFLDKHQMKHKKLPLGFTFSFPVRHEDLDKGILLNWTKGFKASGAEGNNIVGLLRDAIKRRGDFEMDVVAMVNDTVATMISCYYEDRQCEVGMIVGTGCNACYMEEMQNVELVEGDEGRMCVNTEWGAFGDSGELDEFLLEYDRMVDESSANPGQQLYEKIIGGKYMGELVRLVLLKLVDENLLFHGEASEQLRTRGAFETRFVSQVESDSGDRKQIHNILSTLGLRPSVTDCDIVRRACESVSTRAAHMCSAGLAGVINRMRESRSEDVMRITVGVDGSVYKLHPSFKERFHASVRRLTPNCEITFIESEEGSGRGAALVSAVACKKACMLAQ

[7] = target: T6, glucokinase, liver isoform (Rattus norvegicus, UniProt P17712); settings: read-out: Km for glucose; cited from earlier work
T6 sequence (P17712 1-465 isoform P17712-3): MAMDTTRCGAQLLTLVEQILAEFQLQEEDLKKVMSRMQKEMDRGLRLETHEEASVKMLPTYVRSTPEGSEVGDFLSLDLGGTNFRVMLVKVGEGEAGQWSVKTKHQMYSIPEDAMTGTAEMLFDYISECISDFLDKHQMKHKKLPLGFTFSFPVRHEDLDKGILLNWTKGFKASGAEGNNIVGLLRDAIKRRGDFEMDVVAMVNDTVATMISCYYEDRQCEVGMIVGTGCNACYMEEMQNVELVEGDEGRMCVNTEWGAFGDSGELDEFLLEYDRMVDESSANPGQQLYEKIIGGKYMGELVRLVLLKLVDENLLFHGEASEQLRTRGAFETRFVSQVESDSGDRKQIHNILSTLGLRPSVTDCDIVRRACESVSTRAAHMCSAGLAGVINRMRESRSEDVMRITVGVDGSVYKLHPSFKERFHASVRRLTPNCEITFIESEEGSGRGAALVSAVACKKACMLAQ

[8] = system: GLUT-2 transfected AtT-20ins cells (line CGT-6); test: cells; settings: Mus musculus, 3 h, read-out: maximal stimulation of insulin release relative to 0 mM glucose
Procedure: as §1

[9] = system: CGT-6 (GLUT-2 expressing AtT-20ins) cells; test: cells
Procedure: Insulin secretion from CGT-6 (GLUT-2,expressing AtT-20ins) cells was evaluated using a column perfusion technique (Knudsen et al., 1983). Cells were grown in liquid culture on microcarrier beads (InvitroGen). Approximately 50×10^6 cells were harvested by gentle centrifugation (500 rpm in a Sorvall RT6000B desk top centrifuge), resuspended in 4ml Krebs-Ringer salt (KRS) solution, pH 7.4, and loaded onto a Pharmacia P10/10 column. A cell count was obtained immediately before loading the column in the following manner. An aliquot of cells was taken, the beads digested with 1.2 U/ml Dispase (Boehringer Mannheim), the cell clumps were dispersed by extrusion through a 25 gauge needle and the cells were counted directly.
After the beads settled in the column, the top plunger of the column was gently inserted and the whole apparatus was submerged in a 37° C. water bath. The cells were then perifused as described below.

RIN 1046-38 cells = RIN 1046-38 cells (Clark, et al., 1990); cited from earlier work
[10] = substrate: OC[C@H]1OC(O)[C@H](O)[C@@H](O)[C@@H]1O; test: cells, lysate or membranes; settings: 3-O-methyl glucose uptake, 37.0 °C
[11] = lines CGT-5, CGT-6 stated together, 3-O-methyl glucose uptake

O=P(O)(O)OC[C@H]1OC(O)[C@H](O)[C@@H](O)[C@@H]1O (some centres unmarked) [glucose-6-phosphate, reference compound]
inhibition of hexokinase by glucose-6-phosphate ([1]; 10 mM glucose-6-phosphate): potently inhibits; also recorded: potent inhibitor

OC[C@H]1OC(O)[C@H](O)[C@@H](O)[C@@H]1O (some centres unmarked) [glucose]
Vmax [2]: 0.5 mmoles/min/liter cell space
effect of glucose on insulin release (parental AtT-20ins cells): no significant effect
Vmax ([3]; line CGT-5, Lineweaver-Burke analysis): 25 mmoles/min/liter cell space
Vmax ([3]; line CGT-6, Lineweaver-Burke analysis): 17 mmoles/min/liter cell space
Vmax [3, 11]: 19 mmoles/min/liter cell space
estimated Km for glucose [3, 11]: 18 mM
Vmax ([4]; dispersed islets (Johnson, et al., 1990a)): 24 mmoles/min/liter cell space
Km ([4]; read-out: Km for glucose, dispersed islets (Johnson, et al., 1990a)): 18 mM
Km ([1]; read-out: Km for glucose, Hexokinases I, II, and III): ~0.05 mM
Km [5]: ~8 mM and 8 to 10 mM
Km [6]: 8 to 10 mM and ~10 mM
Km [7]: 8 to 10 mM
maximal fold induction [8]: ~2.5
fold induction at 5000 µM ([9]; 5 min, read-out: insulin secretion second plateau above pre-glucose level): 3
fold induction at 5000 µM ([9]; read-out: increase in insulin release, first phase, over baseline without glucose): 10
glucose concentration at which stimulation of insulin release is maximal (RIN 1046-38 cells): 0.5 mM

B1: rat islet GLUT-2 glucose transporter expressed in AtT-20ins cells (lines CGT-5, CGT-6) (Rattus norvegicus) (protein)
chain: MSEDKITGTLAFTVFTAVLGSFQFGYDIGVINAPQEVIISHYRHVLGVPLDDRRATINYDINGTDTPLIVTPAHTTPDAWEEETEGSAHIVTMLWSLSVSSFAVGGMVASFFGGWLGDKLGRIKAMLAANSLSLTGALLMGCSKFGPAHALIIAGRSVSGLYCGLISGLVPMYIGEIAPTTLRGALGTLHQLALVTGILISQIAGLSFILGNQDYWHILLGLSAVPALLQCLLLLFCPESPRYLYLNLEEEVRAKKSLKRLRGTEDITKDINEMRKEKEEASTEQKVSVIQLFTDPNYRQPIVVALMLHLAQQFSGINGIFYYSTSIFQTAGISQPVYATIGVGAINMIFTAVSVLLVEKAGRRTLFLAGMIGMFFCAVFMSLGLVLLDKFTWMSYVSMTAIFLFVSFFEIGPGPIPWFMVAEFFSQGPRPTALALAAFSNWVCNFIIALCFQYIADFLGPYVFFLFAGVVLVFTLFTFFKVPETKGKSFDEIAAEFRKKSGSAPPRKATVQMEFLGSSETV
Km ([10]; other: line CGT-5, Lineweaver-Burke analysis): 16 mM
Km ([10]; other: line CGT-6, Lineweaver-Burke analysis): 17 mM

B2: GLUT-1 low Km glucose transporter of untransfected parental AtT-20ins cells (Mus musculus) (protein)
chain: MDPSSKKVTGRLMLAVGGAVLGSLQFGYNTGVINAPQKVIEEFYNQTWNHRYGEPIPSTTLTTLWSLSVAIFSVGGMIGSFSVGLFVNRFGRRNSMLMMNLLAFVAAVLMGFSKLGKSFEMLILGRFIIGVYCGLTTGFVPMYVGEVSPTALRGALGTLHQLGIVVGILIAQVFGLDSIMGNADLWPLLLSVIFIPALLQCILLPFCPESPRFLLINRNEENRAKSVLKKLRGTADVTRDLQEMKEEGRQMMREKKVTILELFRSPAYRQPILIAVVLQLSQQLSGINAVFYYSTSIFEKAGVQQPVYATIGSGIVNTAFTVVSLFVVERAGRRTLHLIGLAGMAGCAVLMTIALALLERLPWMSYLSIVAIFGFVAFFEVGPGPIPWFIVAELFSQGPRPAAIAVAGFSNWTSNFIVGMCFQYVEQLCGPYVFIIFTVLLVLFFIFTYFKVPETKGRTFDEIASGFRQGGASQSDKTPEELFHPLGADSQV
Km ([10]; other: untransfected parental AtT-20ins line): 2 mM
